# Reference: patent US11390604B2 (Hoffmann-La Roche Inc., priority 2019, dated 2022)
# Counter-ions that a name gives are not always drawn.
# Test system: Acinetobacter baumannii ATCC 17961
# Experiment: Antimicrobial susceptibility testing: 90% growth inhibitory concentration (IC90) determination
# Type: cell-based
# Conditions: ATCC17961, Acinetobacter baumannii ATCC 17961, Iso-Sensitest broth, read-out: ATCC 17961 IC90
# Procedure, shortened: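 Growth was followed kinetically by OD600 at 20-min intervals for 16 h at 35±2 °C, with ~5×10^5 CFU/ml in Iso-Sensitest broth. Compounds were tested as twofold dilutions (e.g. 50–0.097 μM final). The concentration giving 90% inhibition of log-phase growth was reported.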
row,SMILES,IC90 [nM]
1,"Cn1c(-c2cn(CC#N)nc2C(F)(F)F)cnc1C(=O)Nc1ccc(C(=O)N[C@H]2C[C@@H](NC(=O)N3CCCC3CN)C2)c(Cl)c1 (stereo partly shown) [Example 361, N-[4-[[3-[[2-(aminomethyl)pyrrolidine-1-carbonyl]amino]cyclobutyl]car-bamoyl]-3-chloro-phenyl]-5-[1-(cyanomethyl)-3-(trifluoromethyl)pyrazol-4-yl]-1-methyl-imidazole-2-carboxamide; formic acid]",479
2,"CN(C(=O)c1ccc(NC(=O)c2ncc(-c3cn(C4CC4(F)F)nc3C(F)(F)F)n2C)cc1Cl)C1CCNCC1 (stereo not shown) [Example 368, N-(3-chloro-4-(methyl(piperidin-4-yl)carbamoyl)phenyl)-5-(1-(2,2-difluorocyclopropyl)-3-(trifluoromethyl)-1H-pyrazol-4-yl)-1-methyl-1H-imidazole-2-carboxamide formate]",484
3,Cn1c(-c2cn(C3CC3)nc2C(F)(F)F)cnc1C(=O)Nc1ccc(C(=O)N2CCC(N3CCC(O)CC3)CC2)c(Cl)c1 [Example 370],485
4,"Cn1c(-c2cn(CC#N)nc2C(F)(F)F)cnc1C(=O)Nc1ccc(C(=O)N[C@H]2CC[C@@H](NC(=O)[C@H]3C[C@H](N)C3)CC2)c(Cl)c1 [Example 372, rac-N-(4-(((1S,4s)-4-((1r,3R)-3-aminocyclobutane-1-carboxamido)cyclohexyl)car-bamoyl)-3-chlorophenyl)-5-(1-(cyanomethyl)-3-(trifluoromethyl)-1H-pyrazol-4-yl)-1-methyl-1H-imidazole-2-carboxamide 2,2,2-trifluoroacetate]",486
5,"Cn1c(-c2cn(CC3CC3)nc2C(F)(F)F)cnc1C(=O)Nc1ccc(C(=O)NCC2CN(C(=O)N[C@H]3C[C@@H](N)C3)C2)c(Cl)c1 [Example 373, rac-N-(4-(((1-(((1s,3s)-3-aminocyclobutyl)carbamoyl)aze-tidin-3-yl)methyl)carbamoyl)-3-chlorophenyl)-5-(1-(cyclopropylmethyl)-3-(trifluoromethyl)-1H-pyrazol-4-yl)-1-methyl-1H-imidazole-2-carboxamide formate]",494
6,"Cn1c(-c2cn(C3CC3)nc2C(F)(F)F)cnc1C(=O)Nc1ccc(C(=O)NCCCCCCNC(=O)NCC2CNC2)c(Cl)c1 [Example 378, N-[4-[6-(azetidin-3-ylmethylcarbamoylamino)hexyl-carbamoyl]-3-chlorophenyl]-5-[1-cyclopropyl-3-(trifluoromethyl)pyrazol-4-yl]-1-methylimidazole-2-carboxamide;formic acid]",497
7,"Cn1c(-c2cn([C@@H]3CC3(F)F)nc2C(F)(F)F)cnc1C(=O)Nc1ccc(C(=O)N[C@H]2[C@@H]3CN(C(=O)N[C@H]4CNC[C@@H]4O)C[C@@H]32)c(Cl)c1 [Example 380, (1R,5S,6R)-6-(2-chloro-4-(5-(1-((R)-2,2-difluorocyclopropyl)-3-(trifluoromethyl)-1H-pyrazol-4-yl)-1-methyl-1H-imidazole-2-carboxamido)benzamido)-N-((3S,4S)-4-hydroxypyrrolidin-3-yl)-3-azabicyclo[3.1.0]hexane-3-carboxamide]",104
8,"C#CCn1cc(-c2cnc(C(=O)Nc3ccc(C(=O)N[C@H]4[C@@H]5CN(C(=O)N[C@@H]6CNC[C@H]6O)C[C@@H]54)c(Cl)c3)n2C)c(C(F)(F)F)n1 [Example 384, (1R,5S,6s)-6-(2-chloro-4-(1-methyl-5-(1-(prop-2-yn-1-yl)-3-(trifluoromethyl)-1H-pyrazol-4-yl)-1H-imidazole-2-carboxamido)benzamido)-N-((3R,4R)-4-hydroxypyrrolidin-3-yl)-3-azabicyclo[3.1.0]hexane-3-carboxamide formate]",64
9,"C=CCn1cc(-c2cnc(C(=O)Nc3ccc(C(=O)N[C@H]4[C@@H]5CN(C(=O)N[C@@H]6CNC[C@H]6O)C[C@@H]54)c(Cl)c3)n2C)c(C(F)(F)F)n1 [Example 387, (1R,5S,6s)-6-(4-(5-(1-allyl-3-(trifluoromethyl)-1H-pyrazol-4-yl)-1-methyl-1H-imidazole-2-carboxamido)-2-chlorobenzamido)-N-((3R,4R)-4-hydroxypyrrolidin-3-yl)-3-azabicyclo[3.1.0]hexane-3-carboxamide formate]",130

# More lines, now with the values ahead:
row,IC90 [nM],SMILES
1,474,"CCn1cc(-c2cnc(C(=O)Nc3ccc(C(=O)N4CCC(CCC(C)(C)N(C)C)CC4)c(Cl)c3)n2C)c(C(F)(F)F)n1 [Example 360, N-(3-chloro-4-(4-(3-(dimethylamino)-3-methylbutyl)piperidine-1-carbonyl)phenyl)-5-(1-ethyl-3-(trifluoromethyl)-1H-pyrazol-4-yl)-1-methyl-1H-imidazole-2-carboxamide]"
2,480,"Cn1c(-c2cn(C3CC3)nc2C(F)(F)F)cnc1C(=O)Nc1ccc(C(=O)N2CCN(C(=O)N3CCC(N)CC3)CC2)c(Cl)c1 [Example 362, N-(4-(4-(4-aminopiperidine-1-carbonyl)piperazine-1-carbonyl)-3-chlorophenyl)-5-(1-cyclopropyl-3-(trifluoromethyl)-1H-pyrazol-4-yl)-1-methyl-1H-imidazole-2-carboxamide formate]"
3,481,"Cn1c(-c2cn(CC(F)F)nc2C(F)(F)F)cnc1C(=O)Nc1ccc(C(=O)N2CCC23CN(C(=O)C2CCNCC2)C3)c(Cl)c1 [Example 363, N-(3-chloro-4-(6-(piperidine-4-carbonyl)-1,6-diazaspiro[3.3]heptane-1-carbonyl)phenyl)-5-(1-(2,2-difluoroethyl)-3-(trifluoromethyl)-1H-pyrazol-4-yl)-1-methyl-1H-imidazole-2-carboxamide formate]"
4,482,"Cn1c(-c2cn(CC(F)F)nc2C(F)F)cnc1C(=O)Nc1ccc(C(=O)N2CCN(C(=O)[C@H]3[C@@H]4CNC[C@@H]43)CC2)c(Cl)c1 [Example 364, N-(4-(4-((1R,5S,6r)-3-azabicyclo[3.1.0]hexane-6-carbonyl)piperazine-1-carbonyl)-3-chlorophenyl)-5-(1-(2,2-difluoroethyl)-3-(difluoromethyl)-1H-pyrazol-4-yl)-1-methyl-1H-imidazole-2-carboxamide formate]"
5,483,"CNC1CCN(C(=O)c2ccc(NC(=O)c3ncc(-c4cn(C5CC5)nc4C(F)(F)F)n3C)cc2Cl)CC1 [Example 366, N-(3-chloro-4-(4-(methylamino)piperidine-1-carbonyl)phenyl)-5-(1-cyclopropyl-3-(trifluoromethyl)-1H-pyrazol-4-yl)-1-methyl-1H-imidazole-2-carboxamide formate]"
6,484,"Cn1c(-c2cn(C3CC3)nc2C(F)(F)F)cnc1C(=O)Nc1ccc(C(=O)N2CCN(C(=O)[C@@H]3C[C@H](F)CN3)CC2)c(Cl)c1 [Example 367, N-(3-chloro-4-(4-((2S,4S)-4-fluoropyrrolidine-2-carbonyl)piperazine-1-carbonyl)phenyl)-5-(1-cyclopropyl-3-(trifluoromethyl)-1H-pyrazol-4-yl)-1-methyl-1H-imidazole-2-carboxamide hydrochloride]"
7,485,"Cn1c(-c2cn(CC3CC3)nc2C(F)(F)F)cnc1C(=O)Nc1ccc(C(=O)N2CCN(C(=O)N[C@@H]3CC[C@@H](N)C3)CC2)c(Cl)c1 [Example 369, N-((1R,3R)-3-aminocyclopentyl)-4-(2-chloro-4-(5-(1-(cyclopropylmethyl)-3-(trifluoromethyl)-1H-pyrazol-4-yl)-1-methyl-1H-imidazole-2-carboxamido)benzoyl)piperazine-1-carboxamide]"
8,485,"Cn1c(-c2cn(CC3CCC3)nc2C(F)(F)F)cnc1C(=O)Nc1ccc(C(=O)N2CCNCC2)c(Cl)c1 [Example 371, N-(3-chloro-4-(piperazine-1-carbonyl)phenyl)-5-(1-(cyclobutylmethyl)-3-(trifluoromethyl)-1H-pyrazol-4-yl)-1-methyl-1H-imidazole-2-carboxamide dihydrochloride]"
9,495,"CCn1cc(-c2cnc(C(=O)Nc3ccc(C(=O)N4CCN(C(=O)C5CCNCC5)CC4)c(Br)c3)n2C)c(C(F)(F)F)n1 [Example 374, N-(3-bromo-4-(4-(piperidine-4-carbonyl)piperazine-1-carbonyl)phenyl)-5-(1-ethyl-3-(trifluoromethyl)-1H-pyrazol-4-yl)-1-methyl-1H-imidazole-2-carboxamide hydrochloride]"
10,495,"Cn1c(-c2cn(CC(F)F)nc2C(F)(F)F)cnc1C(=O)Nc1ccc(C(=O)N2CCN(CC(=O)NCCN)CC2)c(Cl)c1 [Example 375, N-(4-(4-(2-((2-aminoethyl)amino)-2-oxoethyl)piperazine-1-carbonyl)-3-chlorophenyl)-5-(1-(2,2-difluoroethyl)-3-(trifluoromethyl)-1H-pyrazol-4-yl)-1-methyl-1H-imidazole-2-carboxamide formate]"
11,499,"Cn1c(-c2cn(C3CC3C(F)(F)F)nc2C(F)(F)F)cnc1C(=O)Nc1ccc(C(=O)N2CCN(C(=O)C3CCNCC3)CC2)c(Cl)c1 (stereo not shown) [Example 379, N-(3-chloro-4-(4-(piperidine-4-carbonyl)piperazine-1-carbonyl)phenyl)-1-methyl-5-(3-(trifluoromethyl)-1-(2-(trifluoromethyl)cyclopropyl)-1H-pyrazol-4-yl)-1H-imidazole-2-carboxamide formate]"
12,234,"Cn1c(-c2cn(C3CC3)nc2C(F)(F)F)cnc1C(=O)Nc1ccc(C(=O)N2CCN(C(=O)[C@H]3[C@@H]4CNC[C@@H]43)CC2)c(Cl)c1 [Example 383, N-[3-chloro-4-[4-[rac-(1R,5S)-3-azabicyclo[3.1.0]hexane-6-carbonyl]piperazine-1-carbonyl]phenyl]-5-[1-cyclopropyl-3-(trifluoromethyl)pyrazol-4-yl]-1-methylimidazole-2-carboxamide;hydrochloride]"
13,110,"Cn1c(-c2cn(CC(F)F)nc2C(F)(F)F)cnc1C(=O)Nc1ccc(C(=O)N[C@H]2[C@@H]3CN(C(=O)N[C@@H]4CNC[C@H]4O)C[C@@H]32)c(Cl)c1 [Example 386, (1R,5S,6s)-6-(2-chloro-4-(5-(1-(2,2-difluoroethyl)-3-(trifluoromethyl)-1H-pyrazol-4-yl)-1-methyl-1H-imidazole-2-carboxamido)benzamido)-N-((3R,4R)-4-hydroxypyrrolidin-3-yl)-3-azabicyclo[3.1.0]hexane-3-carboxamide formate]"
